Structures can show the parent of a compound that is named as a salt.
Molecular target: T1, human mGluR5 (Homo sapiens, UniProt P41594)
T1 construct: expressed in transfected cells
Assay: Experiment for receptor function of mGluR5 (Ca2+-dependent fluorescence, FLIPR, CHO-K1 cells stably expressing human mGluR5)
Assay type: cell-based
Settings: L-glutamic acid 10 μM, Fluo-4 fluorescence
Procedure: Stable expression cells in which the human mGluR5 gene had been introduced into a Chinese hamster ovary cell (CHO-K1) were used for evaluation. The cells were suspended in a growth medium (MEM-α (D8042, available from Sigma) containing 10% inactivated FBS (Cat. No. 171012, available from CCB) and 2 mM glutamax (Cat. No. 35050, available from GIBCO)) and seeded on a black clear-bottom 96-well plate at 100,000 cells per well. One day after seeding, the medium was replaced by a medium (Hanks' balanced salt solution (HBSS buffer solution) (20 mM HEPES, 2.5 mM probencide (165-15472, available from Wako Pure Chemical Industries, Ltd.), and 10×HBSS (14065-056, available from Gibco) diluted 10 times, pH 7.4)) containing a calcium-sensitive dye Fluo-4 AM at a final concentration of […] (F312, available from Dojindo Laboratories) and Pluronic F-127 at a final concentration of 0.0145% (P-2443, available from Sigma), followed by incubation at 37° C. for one hour, thereby loading Fluo-4 AM into the cells.
Subsequently, the cells were washed twice with an HBSS buffer solution, to which was subsequently added the same buffer solution. Twenty minutes thereafter, the plate was transferred into a fluorescence screening system (FLIPR TETRA, available from Molecular Devices, LLC) and measured for a Ca^2+-dependent fluorescence change in the cells.
First of all, a fluorescence baseline was measured, and thereafter, fluorescence measurement was performed for 2 minutes while adding a test substance, an excessive amount of 6-methyl-2-(phenylethynyl)pyridine (hereinafter referred to as “MPEP”) (final concentration: 10 μM), or the medium. Thereafter, fluorescence measurement was carried out for one minute while adding L-glutamic acid (final concentration: 10 μM).
While taking a fluorescence intensity caused by L-glutamic acid as 100% and a fluorescence intensity caused by L-glutamic acid in the presence of MPEP as 0%, respectively, function inhibitory activity against human mGluR5 was evaluated from the fluorescence intensity caused by L-glutamic acid in the presence of the test substance at each concentration, and an IC50 value was estimated according to a logistic equation (SAS System).

T1 sequence (P41594 21-1212): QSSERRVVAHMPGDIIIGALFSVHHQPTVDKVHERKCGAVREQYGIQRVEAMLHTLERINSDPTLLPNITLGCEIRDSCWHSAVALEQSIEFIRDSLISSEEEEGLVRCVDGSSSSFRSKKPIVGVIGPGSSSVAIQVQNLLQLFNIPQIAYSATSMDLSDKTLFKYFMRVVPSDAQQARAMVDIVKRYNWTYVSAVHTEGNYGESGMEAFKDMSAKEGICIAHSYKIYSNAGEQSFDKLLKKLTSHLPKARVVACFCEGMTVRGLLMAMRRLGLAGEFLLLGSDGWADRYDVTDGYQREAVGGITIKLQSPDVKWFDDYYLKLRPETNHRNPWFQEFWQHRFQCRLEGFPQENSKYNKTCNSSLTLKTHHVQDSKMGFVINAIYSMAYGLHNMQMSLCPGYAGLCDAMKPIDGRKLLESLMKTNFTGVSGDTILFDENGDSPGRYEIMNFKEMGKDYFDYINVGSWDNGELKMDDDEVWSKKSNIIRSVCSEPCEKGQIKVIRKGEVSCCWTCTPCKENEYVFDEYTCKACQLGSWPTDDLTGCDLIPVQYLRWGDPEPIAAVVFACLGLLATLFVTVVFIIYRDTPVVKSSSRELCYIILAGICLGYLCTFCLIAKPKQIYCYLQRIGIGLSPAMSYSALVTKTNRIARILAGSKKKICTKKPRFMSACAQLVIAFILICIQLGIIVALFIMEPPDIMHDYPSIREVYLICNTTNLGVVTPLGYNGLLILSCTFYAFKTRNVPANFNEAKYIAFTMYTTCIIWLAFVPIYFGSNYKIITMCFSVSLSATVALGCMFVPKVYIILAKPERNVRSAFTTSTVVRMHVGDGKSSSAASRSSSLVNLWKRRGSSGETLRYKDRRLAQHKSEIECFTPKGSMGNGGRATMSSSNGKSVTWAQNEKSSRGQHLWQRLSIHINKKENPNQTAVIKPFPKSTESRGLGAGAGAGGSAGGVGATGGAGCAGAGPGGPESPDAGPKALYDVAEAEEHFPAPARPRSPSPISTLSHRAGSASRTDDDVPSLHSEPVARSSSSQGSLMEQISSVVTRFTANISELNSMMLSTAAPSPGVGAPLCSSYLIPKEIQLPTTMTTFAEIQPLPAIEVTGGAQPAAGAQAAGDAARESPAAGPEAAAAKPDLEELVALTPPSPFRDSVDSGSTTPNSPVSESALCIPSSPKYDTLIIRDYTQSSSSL

IC50	Compound
0.0162 µM	Fc1cc(-c2cc(OCc3ccccn3)nc3c2CCC3)ccn1 [Example 73, 4-(2-Fluoropyridin-4-yl)-2-(pyridin-2-ylmethoxy)-6,7-dihydro-5H-cyclopenta[b]pyridine]
0.0708 µM	Clc1ncncc1-c1cc(OCc2ccccn2)nc2c1CCCC2 [Example 176, 4-(4-Chloropyrimidin-5-yl)-2-(pyridin-2-ylmethoxy)-5,6,7,8-tetrahydroquinoline hydrochloride]
0.092 µM	Oc1cc(F)cc(-c2cc(OCc3ccccn3)nc3c2CCC3)c1 [Example 68, 3-Fluoro-5-[2-(pyridin-2-ylmethoxy)-6,7-dihydro-5H-cyclopenta[b]pyridin-4-yl]phenol]
0.067 µM	OCc1cncc(-c2cc(OCc3ccc(F)cn3)nc3c2CCC3)n1 [Example 269, (6-{2-[(5-Fluoropyridin-2-yl)methoxy]-6,7-dihydro-5H-cyclopenta[b]pyridin-4-yl}pyrazin-2-yl)methanol]
0.104 µM	Cc1cccc(COc2cc(-c3cncnc3)c3c(n2)CCC3)n1 [Example 28, 2-[(6-Methylpyridin-2-yl)methoxy]-4-(pyrimidin-5-yl)-6,7-dihydro-5H-cyclopenta[b]pyridine]
0.092 µM	Fc1ccc(COc2cc(-c3cncnc3)c3c(n2)CCCC3)cc1 [Example 280, 2-[(4-Fluorobenzyl)oxy]-4-(pyrimidin-5-yl)-5,6,7,8-tetrahydroquinoline]
0.297 µM	Cc1ccc(-c2cc(OCc3ccccn3)nc3c2CCC3)cc1F [Example 64, 4-(3-Fluoro-4-methylphenyl)-2-(pyridin-2-ylmethoxy)-6,7-dihydro-5H-cyclopenta[b]pyridine]
0.074 µM	Fc1ccc(COc2cc(-c3cncnc3)c3c(n2)CCCC3)nc1 [Example 145, 2-[(5-Fluoropyridin-2-yl)methoxy]-4-(pyrimidin-5-yl)-5,6,7,8-tetrahydroquinoline]
0.0101 µM	N#Cc1ccc(COc2cc(-c3cncnc3)c3c(n2)CCC3)cc1 [Example 258, 4-({[4-(Pyrimidin-5-yl)-6,7-dihydro-5H-cyclopenta[b]pyridin-2-yl]oxy}methyl)benzonitrile]
0.0106 µM	N#Cc1ccc(COc2cc(-c3cncc(F)c3)c3c(n2)CCC3)nc1 [Example 250, 6-({[4-(5-Fluoropyridin-3-yl)-6,7-dihydro-5H-cyclopenta[b]pyridin-2-yl]oxy}methyl)pyridine-3-carbonitrile]
0.0628 µM	Cc1cc(COc2cc(-c3cncnc3)c3c(n2)CCC3)ccn1 [Example 256, 2-[(2-Methylpyridin-4-yl)methoxy]-4-(pyrimidin-5-yl)-6,7-dihydro-5H-cyclopenta[b]pyridine]
0.144 µM	Fc1nccnc1-c1cc(OCc2ccccn2)nc2c1CCCC2 [Example 200, 4-(3-Fluoropyrazin-2-yl)-2-(pyridin-2-ylmethoxy)-5,6,7,8-tetrahydroquinoline hydrochloride]
0.0362 µM	Cc1cncc(-c2cc(OCc3ccccn3)nc3c2CCCC3)n1 [Example 201, 4-(6-Methylpyrazin-2-yl)-2-(pyridin-2-ylmethoxy)-5,6,7,8-tetrahydroquinoline]
0.0194 µM	Fc1cccc(COc2cc(-c3cncnc3)c3c(n2)CCCC3)n1 [Example 144, 2-[(6-Fluoropyridin-2-yl)methoxy]-4-(pyrimidin-5-yl)-5,6,7,8-tetrahydroquinoline]
0.03 µM	Cc1ncc(-c2cc(OCc3ncccc3F)nc3c2CCC3)cn1 [Example 41, 2-[(3-Fluoropyridin-2-yl)methoxy]-4-(2-methylpyrimidin-5-yl)-6,7-dihydro-5H-cyclopenta[b]pyridine]
0.0468 µM	N#Cc1cccc(COc2cc(-c3cnc(N)nc3)c3c(n2)CCC3)c1 [Example 265, 3-({[4-(2-Aminopyrimidin-5-yl)-6,7-dihydro-5H-cyclopenta[b]pyridin-2-yl]oxy}methyl)benzonitrile]
0.053 µM	OCc1cncc(-c2cc(OCc3cccc(F)c3)nc3c2CCC3)c1 [Example 249, (5-{2-[(3-Fluorobenzyl)oxy]-6,7-dihydro-5H-cyclopenta[b]pyridin-4-yl}pyridin-3-yl)methanol]
0.0139 µM	Nc1ncc(-c2cc(OCc3ccccn3)nc3c2CCCC3)cn1 [Example 169, 5-[2-(Pyridin-2-ylmethoxy)-5,6,7,8-tetrahydroquinolin-4-yl]pyrimidin-2-amine]
0.153 µM	Cc1ncc(-c2cc(OCc3ccccn3)nc3c2CCCC3)cn1 [Example 168, 4-(2-Methylpyrimidin-5-yl)-2-(pyridin-2-ylmethoxy)-5,6,7,8-tetrahydroquinoline]
0.0248 µM	Nc1cncc(-c2cc(OCc3ccccn3)nc3c2CCCC3)c1 [Example 124, 5-[2-(Pyridin-2-ylmethoxy)-5,6,7,8-tetrahydroquinolin-4-yl]pyridin-3-amine]
0.108 µM	N#Cc1cccc(COc2cc(-c3cncnc3)c3c(n2)CCCC3)c1 [Example 279, 3-({[4-(Pyrimidin-5-yl)-5,6,7,8-tetrahydroquinolin-2-yl]oxy}methyl)benzonitrile]
0.0448 µM	Cc1cccc(COc2cc(-c3cncnc3)c3c(n2)CCCC3)n1 [Example 152, 2-[(6-Methylpyridin-2-yl)methoxy]-4-(pyrimidin-5-yl)-5,6,7,8-tetrahydroquinoline]
0.146 µM	Cc1ncc(-c2cc(OCc3ccnc(C#N)c3)nc3c2CCCC3)cn1 [Example 287, 4-({[4-(2-Methylpyrimidin-5-yl)-5,6,7,8-tetrahydroquinolin-2-yl]oxy}methyl)pyridine-2-carbonitrile]
0.359 µM	C=Cc1cccc(COc2cc(-c3cncnc3)c3c(n2)CCCC3)n1 [Example 161, 2-[(6-Ethenylpyridin-2-yl)methoxy]-4-(pyrimidin-5-yl)-5,6,7,8-tetrahydroquinoline]
0.063 µM	N#Cc1ccc(COc2cc(-c3cncnc3)c3c(n2)CCCC3)nc1 [Example 150, 6-({[4-(Pyrimidin-5-yl)-5,6,7,8-tetrahydroquinolin-2-yl]oxy}methyl)pyridine-3-carbonitrile]
0.094 µM	CS(=O)(=O)Oc1cc(F)cc(-c2cc(OCc3ccccn3)nc3c2CCC3)c1 [Example 69, 3-Fluoro-5-[2-(pyridin-2-ylmethoxy)-6,7-dihydro-5H-cyclopenta[b]pyridin-4-yl]phenyl methanesulfonate]
0.0135 µM	N#Cc1ccc(COc2cc(-c3ccnc(F)c3)c3c(n2)CCC3)nc1 [Example 252, 6-({[4-(2-Fluoropyridin-4-yl)-6,7-dihydro-5H-cyclopenta[b]pyridin-2-yl]oxy}methyl)pyridine-3-carbonitrile]
0.0193 µM	N#Cc1cccc(COc2cc(-c3cncnc3)c3c(n2)CCCC3)n1 [Example 149, 6-({[4-(Pyrimidin-5-yl)-5,6,7,8-tetrahydroquinolin-2-yl]oxy}methyl)pyridine-2-carbonitrile]
0.176 µM	N#Cc1ncc(-c2cc(OCc3ncccc3F)nc3c2CCC3)cn1 [Example 50, 5-{2-[(3-Fluoropyridin-2-yl)methoxy]-6,7-dihydro-5H-cyclopenta[b]pyridin-4-yl}pyrimidine-2-carbonitrile]
0.0688 µM	N#Cc1cncc(-c2cc(OCc3ccccn3)nc3c2CCCC3)c1 [Example 113, 5-[2-(Pyridin-2-ylmethoxy)-5,6,7,8-tetrahydroquinolin-4-yl]pyridine-3-carbonitrile hydrochloride]
